Test results as given in publication PMC7946228, “Discovery of novel candidates for anti-liposarcoma therapies by medium-scale high-throughput drug screening” (PLoS ONE, 2021).
Read-outs that look alike come from different tables or passages of the source.

Columns and labels:
[1] = test system: liposarcoma cell lines; experiment: IncuCyte cell proliferation assay (growth reducing/arresting concentration); assay type: cell-based, human; details: complete growth arrest between 96 and 120h
Procedure: The cellular proliferation rate was measured using the IncuCyte ZOOM live-cell imaging system (Essen Bioscience, Birmingham, UK) with the corresponding software application (version 2013BRev1). First the growth rate for each cell line was established to estimate the seeding numbers of cells corresponding to 15-30% of confluence at the start of the experiment and maximum 70% after 72h. The drug treatment was initiated approximately 18h after seeding. The proliferation rate was measured as cell confluence over time through the acquisition of photographs under phase contrast every third hour for the entire duration of the drug treatment. During the drug treatment, media were not changed, and cells were not split. The growth reducing drug concentration was defined as lowest drug concentration leading to significant decrease of cellular growth between 40 and 72h after start of treatment. To determine that concentration, plots were generated using IncuCyte software and differences in growth between 40 and 72h were calculated using least-square means with the '[…] package version 1.4.3 [25]. Growth arresting concentrations were defined as minimal drug concentration under which cell confluence between 96 and 120h increases by less than 3%. Though growth arrest occurred much earlier, these time points ensured that the growth arrest is a stable phenomenon. These growth arresting concentrations were used for drug withdrawal, apoptosis and cell cycle experiments. All the data were verified with the plots. The presented values correspond to median values from two ([…], all compounds) to five (all cell lines, triptolide) biological replicates.

[2] = test system: liposarcoma cell lines; experiment: TUNEL apoptosis assay by flow cytometry; assay type: cell-based, human; details: growth arresting concentration, 17-72h, majority of cell lines
Procedure: (§1) Cells were treated with drugs at the concentrations corresponding to previously established growth arresting concentrations and collected between 17 and 72h. Time of collection was individual for every drug/cell line combination; cells were collected after the beginning of complete growth inhibition (based on the growth curves data) but only when first signs of morphological change or cell death were visible (estimated microscopically approximately every 2h). After methanol fixation, cells were barcoded with different combinations of Pacific Blue/Pacific Orange dyes (Thermo Fisher Scientific) for different drug treatments. After mixing, cells were incubated in the TUNEL reaction mix for 1h at 37°C, according to the manufacturer’s instructions (Roche, Germany), stained with Streptavidin-Cy5 conjugated Ab and digested with RNAse. Cells were counter-stained with propidium iodide and analyzed using LSR II Flow Cytometer (BD Biosciences, NJ, USA. The data were processed with FlowJo Version 7.6.5 (Tree Star, Ashland, USA). The gating strategy is presented in Fig 3A. Cy-5 positive cells (as compared to control sample) were calculated as apoptotic. Cell cycles of non-apoptotic cells were analyzed using the built in FlowJo Cell Cycle Analysis module. Three independent biological replicates were done for each cell line/drug combination with exception of FU-DDLS-1 and T1000 –for which we only had two replicates available.

[3] = test system: liposarcoma cell lines; experiment: Drug withdrawal, reversibility of growth arrest; assay type: cell-based, human; details: for reversibility of growth inhibition after drug removal: 120h treatment at growth arresting concentration, then 72h without drug, except T778 with MLN9708
Procedure: The cellular proliferation rate was measured using the IncuCyte ZOOM live-cell imaging system (Essen Bioscience, Birmingham, UK) with the corresponding software application (version 2013BRev1). First the growth rate for each cell line was established to estimate the seeding numbers of cells corresponding to 15–30% of confluence at the start of the experiment and maximum 70% after 72h. The drug treatment was initiated approximately 18h after seeding. The proliferation rate was measured as cell confluence over time through the acquisition of photographs under phase contrast every third hour for the entire duration of the drug treatment. During the drug treatment, media were not changed, and cells were not split. The growth reducing drug concentration was defined as lowest drug concentration leading to significant decrease of cellular growth between 40 and 72h after start of treatment. To determine that concentration, plots were generated using IncuCyte software and differences in growth between 40 and 72h were calculated using least-square means with the ‘emmeans’ R package version 1.4.3 [25]. Growth arresting concentrations were defined as minimal drug concentration under which cell confluence between 96 and 120h increases by less than 3%. Though growth arrest occurred much earlier, these time points ensured that the growth arrest is a stable phenomenon. These growth arresting concentrations were used for drug withdrawal, apoptosis and cell cycle experiments. All the data were verified with the plots. The presented values correspond to median values from two (T449, all compounds) to five (all cell lines, triptolide) biological replicates.
An important prerequisite for clinical implementation of these compounds as treatment for liposarcoma is irreversibility of the induced growth inhibition. We thus assessed if the drugs were only transiently cytostatic, which is especially important in case of the compounds that seem to work mainly via cell cycle arrest (APO866, GSK2126458). Cells were treated with the compounds at growth arresting concentrations for 120h after which the compounds were removed and cell numbers were monitored for another 72h. […] To irreversibly arrest cell proliferation GSK2126458 had to be used at 10x higher concentrations (100x for GOT3) (S5 Fig). Those concentrations are above physiological ranges (see Table 2), and these effects should be accounted for assessing use of GSK2126458 in clinic.

[4] = cited from earlier work
[5] = test system: liposarcoma cell lines; experiment: Cell cycle analysis of non-apoptotic cells (propidium iodide); assay type: cell-based, human; details: growth arresting concentration, non-apoptotic fraction
Procedure: as §1

[6] = test system: advanced solid malignancies or lymphoma; details: cited from earlier work

For O=C(/C=C/c1cccnc1)NCCCCC1CCN(C(=O)c2ccccc2)CC1 [APO866], the “concentration arresting the majority of the cell lines” value [1] was 10 nM, the “apoptosis (increase in % of apoptotic cells)” value [2] was ≤ 5% and the “reversibility of growth inhibition after drug removal” value (from here on “reversibility of growth inhibition”) [3] was “irreversibly inhibited growth of all tested cell lines”. The “mean steady state serum concentration (Css)” value ([4]; 24 patients with advanced solid malignancies) was 14 nM and the “cell cycle phase in which cells are blocked” value (“cell cycle phase” for short) [5] was “less specific arrest”.
In the case of Cn1cc(CNCC2CCN(c3ncc(C(=O)NO)cn3)CC2)c2ccccc21 [JNJ-26481585], the “apoptosis (increase in % of apoptotic cells)” value [2] is given as “above 5%”, the “patients with partial response or stable disease” value ([6]; heavily pretreated patients with solid tumors) is given as 10% and the “reversibility of growth inhibition” value [3] is given as “irreversibly inhibited growth of all tested cell lines”. The Cmax ([4]; dosing schedule recommended for phase II, patients with solid tumors) was 1.5 to 14 nM and the “cell cycle phase” value [5] was “G1 and G2 phases”.
For COCCn1c2c([n+](Cc3cnccn3)c1C)C(=O)c1ccccc1C2=O [YM155], the “apoptosis (increase in % of apoptotic cells)” value [2] is listed as “above 5%”, the “patients with complete or partial responses” value ([6]; phase I, advanced solid malignancies or lymphoma) is listed as 14% and the “reversibility of growth inhibition” value [3] is listed as “Some cell lines such as LPS141, T778 and SA-4 resumed growth”. For the same compound, the “concentration needed for irreversible growth arrest relative to growth arresting concentration” value ([3]; cell lines that resumed growth, 100x for GOT3 with GSK2126458) was 10 x higher, the Css ([4]; phase I, maximum tolerated dose) was 17 nM and the Cmax ([4]; read-out: clinically relevant concentration (Cmax or Css), values show Cmax or Css (italics), patients) was 17 nM. The “cell cycle phase” value [5] was “less specific arrest”.
For CC(C)[C@]12O[C@H]1[C@@H]1O[C@]13[C@]1(O[C@H]1C[C@H]1C4=C(CC[C@@]13C)C(=O)OC4)[C@@H]2O [Triptolide], the “concentration arresting the majority of the cell lines” value [1] was 10 nM, the “apoptosis (increase in % of apoptotic cells)” value [2] was “above 15%” and the “reversibility of growth inhibition” value [3] was “irreversibly inhibited growth of all tested cell lines”. The Cmax ([4]; read-out: maximum therapeutic plasma concentration (Cmax), in humans) was 150 to 400 nM and the “cell cycle phase” value [5] was “S phase”.
